Assay results from ChEMBL document CHEMBL5579878, “Allosteric Activation of Protein Phosphatase 5 with Small Molecules” (J Med Chem, 2024).

Columns and labels:
[1] = biological target: T1, Serine/threonine-protein phosphatase 5 (Homo sapiens) (UniProt P53041); assay: Activation of His-tagged human PP5 extracted from Escherichia coli BL21 using pNPP as substrate assessed as increase in phosphatase activity incubated for 30 mins by spectrophotometric analysis; conditions: filed as activator
T1 sequence (whole entry): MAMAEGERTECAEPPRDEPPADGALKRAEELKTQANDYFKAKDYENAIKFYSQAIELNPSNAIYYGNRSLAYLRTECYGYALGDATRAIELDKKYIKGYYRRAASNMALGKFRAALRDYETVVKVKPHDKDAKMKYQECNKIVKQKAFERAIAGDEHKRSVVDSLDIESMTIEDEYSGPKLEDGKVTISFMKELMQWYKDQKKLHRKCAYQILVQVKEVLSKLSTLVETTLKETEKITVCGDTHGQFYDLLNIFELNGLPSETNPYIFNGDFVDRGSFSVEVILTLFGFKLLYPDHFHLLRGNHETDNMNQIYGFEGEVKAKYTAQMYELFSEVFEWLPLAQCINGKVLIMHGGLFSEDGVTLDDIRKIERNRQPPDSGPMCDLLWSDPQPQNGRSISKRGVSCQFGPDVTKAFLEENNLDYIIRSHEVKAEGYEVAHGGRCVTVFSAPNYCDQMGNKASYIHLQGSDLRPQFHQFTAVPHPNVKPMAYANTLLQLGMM

[2] = biological target: T1, Serine/threonine-protein phosphatase 5 (Homo sapiens); assay: Activation of His-tagged human PP5 extracted from Escherichia coli BL21 using pNPP as substrate assessed as fold increase in phosphatase activity at 50 uM incubated for 30 mins by spectrophotometric analysis
[3] = biological target: T1, Serine/threonine-protein phosphatase 5 (Homo sapiens); assay: Activation of His-tagged human PP5 extracted from Escherichia coli BL21 using pNPP as substrate assessed as fold change in maximum activation upto 300 uM incubated for 30 mins by spectrophotometric analysis; conditions: filed as activator
[4] = biological target: T2, Serine/threonine-protein phosphatase 5 (Homo sapiens, UniProt P53041); assay: Inhibition of human PP5 phosphatase domain extracted from Escherichia coli BL21 using pNPP as substrate incubated for 30 mins by spectrophotometric analysis
T2 sequence (P53041 whole entry): T1 sequence (whole entry)

[5] = biological target: T2, Serine/threonine-protein phosphatase 5; assay: Inhibition of DDO-3733 preincubated human PP5 phosphatase domain extracted from Escherichia coli BL21 using pNPP as substrate incubated for 30 mins by spectrophotometric analysis
[6] = biological target: T1, Serine/threonine-protein phosphatase 5 (Homo sapiens); assay: Activation of His-tagged human PP5 extracted from Escherichia coli BL21 using pNPP as substrate assessed as fold increase in phosphatase activity at 200 uM incubated for 30 mins by spectrophotometric analysis; conditions: filed as activator
SW-620 = assay: Antiproliferative activity against human SW620 cells assessed as inhibition of cell proliferation incubated for 72 hrs by CCK8 assay; type: functional, cell-based; conditions: SW-620, 72 h
[7] = Toxicity in BALB/c nude mouse xenografted with human HCT-116 cells assessed as body weight loss at 20 mg/kg, ip administered every other day for 14 days; type: organism-based; conditions: in vivo, 336 h, time 14 day
HCT-116 [8] = assay: Antiproliferative activity against human HCT-116 cells assessed as inhibition of cell proliferation incubated for 72 hrs by CCK8 assay; type: functional, cell-based; conditions: HCT-116, 72 h
HCT-116 [9] = assay: Heat shock toxicity in human HCT-116 cells assessed as increase in HSP70 mRNA expression at 10 to 100 nM incubated for 24 hrs by qRT-PCR analysis; type: cell-based; conditions: hct-116, 24 h, 0.1 µM, dose 10-100 nM
HCT-116 [10] = assay: Heat shock toxicity in human HCT-116 cells assessed as increase in HSP40 protein expression at 3 to 100 nM incubated for 24 hrs by Western blot analysis; type: cell-based; conditions: hct-116, 24 h, 0.1 µM, dose 3-100 nM
HCT-116 [11] = assay: Heat shock toxicity in human HCT-116 cells assessed as increase in HSP40 mRNA expression at 10 to 100 nM incubated for 24 hrs by qRT-PCR analysis; type: cell-based; conditions: hct-116, 24 h, 0.1 µM, dose 10-100 nM
HCT-116 [12] = assay: Heat shock toxicity in human HCT-116 cells assessed as increase in HSP27 protein expression at 3 to 100 nM incubated for 24 hrs by Western blot analysis; type: cell-based; conditions: hct-116, 24 h, 0.1 µM, dose 3-100 nM
HCT-116 [13] = assay: Heat shock toxicity in human HCT-116 cells assessed as increase in HSP70 protein expression at 3 to 100 nM incubated for 24 hrs by Western blot analysis; type: cell-based; conditions: hct-116, 24 h, 0.1 µM, dose 3-100 nM
HCT-116 [14] = assay: Heat shock toxicity in human HCT-116 cells assessed as increase in HSP27 mRNA expression at 10 to 100 nM incubated for 24 hrs by qRT-PCR analysis; type: cell-based; conditions: hct-116, 24 h, 0.1 µM, dose 10-100 nM

SMILES	fold change (FC) ([2]; filed as activator)	fold change (FC) [2]	also measured
N=c1oc2cc(Br)ccc2cc1C(N)=S	2.1	–	Activity [1]: Dose-Dependent Effect; fold change (FC) [3]: 4
N=c1oc2cc(F)ccc2cc1C(N)=S	1.7	–	–
N=c1oc2cc([N+](=O)[O-])ccc2cc1C(N)=S	–	< 1.5	–
N=c1oc2c(F)ccc(F)c2cc1C(N)=S	1.8	–	–
NC(=S)C1=Cc2cc(F)cc(F)c2OC1N (stereo not drawn)	1.8	–	–
CN1CCN(C(=O)C2C(C(=O)O)[C@H]3CC[C@@H]2O3)CC1 (stereo partly drawn) [LB-100]	–	–	IC50 [4]: 22.1 µM; IC50 [5]: 21.1 µM
N=c1oc2c(F)cc(F)cc2cc1C(=S)NC=O	2.1	–	–
COc1ccc2oc(=N)c(C(N)=S)cc2c1	1.9	–	fold change (FC) [6]: 3.4; Activity [1]: Dose-Dependent Effect
COc1cccc2cc(C(N)=S)c(=N)oc12	–	< 1.5	–
CC(C)c1cc(C(=O)N2Cc3ccc(CN4CCN(C)CC4)cc3C2)c(O)cc1O [ONALESPIB]	–	–	IC50 (SW-620): 0.122 µM; Activity [7]: Non-Toxic; IC50 (HCT-116 [8]): 0.0785 µM; Activity (HCT-116 [9]): Toxic; Activity (HCT-116 [10]): Toxic; Activity (HCT-116 [11]): Toxic; Activity (HCT-116 [12]): Toxic; Activity (HCT-116 [13]): Toxic; Activity (HCT-116 [14]): Toxic
N=c1oc2ccc(O)cc2cc1C(N)=S	1.9	–	–
N=c1oc2c(Br)cc(Br)cc2cc1C(N)=S	2.6	–	–
COc1cccc2oc(=N)c(C(N)=S)cc12	–	< 1.5	–
COc1cc(Br)cc2cc(C(N)=S)c(=N)oc12	2.1	–	–
N=c1oc2cccc(Br)c2cc1C(N)=S	–	< 1.5	–
Cc1ccc2oc(=N)c(C(N)=S)cc2c1	1.6	–	–
N=c1oc2ccc3ccccc3c2cc1C(N)=S	1.6	–	–
N=c1oc2ccc(F)cc2cc1C(N)=S	–	< 1.5	–
COc1ccc2cc(C(N)=S)c(=N)oc2c1	1.6	–	–
N=c1oc2cc(O)ccc2cc1C(N)=S	2.4	–	–
N=c1oc2c(F)cc(F)cc2cc1C(N)=O	–	< 1.5	–
N=c1oc2cc(F)cc(F)c2cc1C(N)=O	–	< 1.5	–
N=c1oc2c(F)cc(F)cc2cc1C(N)=S	2.1	–	–
N=c1oc2ccccc2cc1C(N)=S	1.8	–	–
N=c1oc2c(Cl)cc(Cl)cc2cc1C(N)=S	–	< 1.5	–
N=c1oc2cccc(F)c2cc1C(N)=S	1.6	–	–
N=c1oc2cc(F)c(F)cc2cc1C(N)=S	1.7	–	–
CO/N=c1/oc2c(F)cc(F)cc2cc1C(N)=S	–	< 1.5	–
C/N=c1/oc2c(F)cc(F)cc2cc1C(N)=S	–	< 1.5	–
N=c1oc2c(F)cccc2cc1C(N)=S	–	< 1.5	–
